Source: patent US4698344A, “1-Heteroaryl-4-aryl-pyrazolin-5-ones for use as medicaments” (priority 1984, dated 1987)
Like-named read-outs stand apart in the source and are kept apart here.

Legend:
[1] = system: release of leukotrienes (SRS-A); assay: Passive peritoneal anaphylaxis (rats); type: in vivo, rat; settings: 100 mg/kg perorally
Description: The effect of substances on the release of mediators, in particular the release of leukotrienes, is recorded with this in vivo method. […] Histamine is not released during this, so that the lipoxygenase-inhibiting action of test substances can be investigated selectively.

[2] = system: carrageenan-induced oedema of the rat paw; assay: Carrageenan-induced oedema of the rat paw; type: in vivo; settings: for % inhibition of the carrageenan oedema: oral, 2.5 mg/kg, rats, 5 hours after oedema provocation
Description: The antiinflammatory action of the test substances following oral administration was determined with the aid of carrageenan-induced oedema of the rat paw.
The experiments were carried out with male rats, strain: Bor:WLSW (SPF-Cpb); weight 150 to 220 g. One hour before inducing the oedema (0.1 ml of carrageenan suspension/animal, subplantar injection), the substance to be tested was administered to the animals as a suspension in tragacanth with the aid of a stomach tube; as a control, a second group of animals was treated with tragacanth without the substance.
The paw volumes were measured by the method of F. Kemper and G. Ameln Z. exp.

[3] = target: T1, lipoxygenase (Rattus norvegicus, UniProt P12527); assay: Lipoxygenase activity in homogenates of RBL-1 cells; type: biochemical; settings: concentration 0.5-1 μg/ml; negative = inhibition
T1 construct: homogenates of RBL-1 cells; endogenous in cells; host or cells: RBL-1 (rat basophilic leukaemia) cells, homogenate
T1 sequence (P12527 1-673): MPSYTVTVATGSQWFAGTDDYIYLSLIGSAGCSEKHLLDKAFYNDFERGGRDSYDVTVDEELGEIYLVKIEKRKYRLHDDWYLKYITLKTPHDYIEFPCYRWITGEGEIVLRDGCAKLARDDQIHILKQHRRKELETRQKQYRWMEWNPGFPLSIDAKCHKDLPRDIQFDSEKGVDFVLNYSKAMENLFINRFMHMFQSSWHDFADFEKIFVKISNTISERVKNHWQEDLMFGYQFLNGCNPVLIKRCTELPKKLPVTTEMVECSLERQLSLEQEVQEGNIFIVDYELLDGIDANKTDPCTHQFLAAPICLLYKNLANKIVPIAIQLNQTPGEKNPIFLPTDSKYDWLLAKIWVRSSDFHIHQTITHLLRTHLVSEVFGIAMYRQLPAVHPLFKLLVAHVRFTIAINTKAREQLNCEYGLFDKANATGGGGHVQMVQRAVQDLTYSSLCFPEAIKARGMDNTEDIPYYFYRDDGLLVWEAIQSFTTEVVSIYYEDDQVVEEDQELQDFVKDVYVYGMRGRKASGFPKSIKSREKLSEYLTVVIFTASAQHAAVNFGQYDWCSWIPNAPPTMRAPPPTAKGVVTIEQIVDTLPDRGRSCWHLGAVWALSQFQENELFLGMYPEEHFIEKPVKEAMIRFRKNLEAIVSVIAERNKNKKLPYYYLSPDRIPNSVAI
From the text: (§1) Basophilic leukaemia cells from rats (RBL-1) synthesize both lipoxygenase and cyclooxygenase products from ^14 C-arachidonic acid with which they are supplied. […] The products formed were separated by thin layer chromatography and quantified in a scanner.

[4] = administered systemically (for example orally); cited from earlier work
[5] = target: T2, cyclooxygenase (Rattus norvegicus, UniProt Q63921); assay: Cyclooxygenase activity in homogenates of RBL-1 cells; type: biochemical; settings: concentration 0.5-1 μg/ml; negative = inhibition
T2 construct: homogenates of RBL-1 cells; endogenous in cells; host or cells: RBL-1 (rat basophilic leukaemia) cells, homogenate
T2 sequence (Q63921 27-602): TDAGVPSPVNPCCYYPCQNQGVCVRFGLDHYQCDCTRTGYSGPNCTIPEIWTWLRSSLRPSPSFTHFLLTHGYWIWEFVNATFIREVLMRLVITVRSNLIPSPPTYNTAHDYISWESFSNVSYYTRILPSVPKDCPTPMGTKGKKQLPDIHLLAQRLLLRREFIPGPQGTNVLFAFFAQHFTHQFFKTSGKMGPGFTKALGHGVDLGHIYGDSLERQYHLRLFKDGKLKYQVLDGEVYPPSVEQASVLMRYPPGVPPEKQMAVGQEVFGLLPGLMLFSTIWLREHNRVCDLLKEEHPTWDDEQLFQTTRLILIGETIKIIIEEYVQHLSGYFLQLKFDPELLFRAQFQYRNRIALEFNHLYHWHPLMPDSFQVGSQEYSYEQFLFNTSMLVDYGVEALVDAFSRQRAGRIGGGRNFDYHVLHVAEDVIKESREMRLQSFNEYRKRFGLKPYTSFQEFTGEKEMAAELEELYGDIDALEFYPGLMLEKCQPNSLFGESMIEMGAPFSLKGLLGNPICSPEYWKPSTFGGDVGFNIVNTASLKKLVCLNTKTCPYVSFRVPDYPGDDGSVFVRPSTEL
From the text: as §1

[6] = target: T3, 5-lipoxygenase (Homo sapiens, UniProt P09917); assay: Lipoxygenase activity (LTB4 synthesis) in human PMN leukocytes stimulated with A 23187; type: cell-based; settings: for inhibition at 10 µg/mL: read-out: Inhibition of LTB4 synthesis in human PMN's; for Effective threshold concentration, inhibition of LTB4 synthesis: human PMN's
T3 construct: endogenous in cells; host or cells: human polymorphonuclear leukocytes from heparinized whole blood
T3 sequence (P09917 1-674): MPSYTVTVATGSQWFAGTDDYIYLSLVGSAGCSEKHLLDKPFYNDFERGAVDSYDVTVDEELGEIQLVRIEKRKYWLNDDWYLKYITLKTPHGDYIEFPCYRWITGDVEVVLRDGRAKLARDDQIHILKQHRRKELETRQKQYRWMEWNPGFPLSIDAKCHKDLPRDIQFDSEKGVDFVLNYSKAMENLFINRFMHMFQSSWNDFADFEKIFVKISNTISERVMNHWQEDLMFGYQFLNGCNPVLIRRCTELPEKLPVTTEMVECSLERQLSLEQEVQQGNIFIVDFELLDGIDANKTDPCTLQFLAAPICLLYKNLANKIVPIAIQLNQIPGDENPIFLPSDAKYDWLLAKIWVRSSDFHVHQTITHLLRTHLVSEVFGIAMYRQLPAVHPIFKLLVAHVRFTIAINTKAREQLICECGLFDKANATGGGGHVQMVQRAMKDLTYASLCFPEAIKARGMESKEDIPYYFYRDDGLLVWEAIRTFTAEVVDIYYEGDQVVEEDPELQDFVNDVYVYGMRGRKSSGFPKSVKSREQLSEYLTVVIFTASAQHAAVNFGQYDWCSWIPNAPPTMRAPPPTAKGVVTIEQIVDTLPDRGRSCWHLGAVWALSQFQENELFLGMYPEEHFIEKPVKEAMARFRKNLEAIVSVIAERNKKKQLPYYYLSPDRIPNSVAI
Description: The polymorphonuclear leukocytes of humans metabolize arachidonic acid to give 5-hydroxy-5,8,11,14-eicosatetraenoic acid (5-HETE) and leukotriene B4 (5S, 12R-dihydroxy-6-cis, 8,10-trans-14ciseicosatetraenoic acid). Inhibition of the release of 5-HETE and leukotriene B4 from leukocytes is a measure of the lipoxygenase-inhibiting effect of the compounds according to the invention.
After 15 minutes, the lipoxygenase products were extracted from the acidified incubation medium and separated by means of HPLC.

[7] = target: T4, 12-lipoxygenase (Homo sapiens, UniProt P18054); assay: Arachidonic acid metabolism in human platelets: 12-lipoxygenase activity; type: cell-based
T4 construct: washed human platelets; endogenous in cells; host or cells: washed human platelets
T4 sequence (P18054 1-663): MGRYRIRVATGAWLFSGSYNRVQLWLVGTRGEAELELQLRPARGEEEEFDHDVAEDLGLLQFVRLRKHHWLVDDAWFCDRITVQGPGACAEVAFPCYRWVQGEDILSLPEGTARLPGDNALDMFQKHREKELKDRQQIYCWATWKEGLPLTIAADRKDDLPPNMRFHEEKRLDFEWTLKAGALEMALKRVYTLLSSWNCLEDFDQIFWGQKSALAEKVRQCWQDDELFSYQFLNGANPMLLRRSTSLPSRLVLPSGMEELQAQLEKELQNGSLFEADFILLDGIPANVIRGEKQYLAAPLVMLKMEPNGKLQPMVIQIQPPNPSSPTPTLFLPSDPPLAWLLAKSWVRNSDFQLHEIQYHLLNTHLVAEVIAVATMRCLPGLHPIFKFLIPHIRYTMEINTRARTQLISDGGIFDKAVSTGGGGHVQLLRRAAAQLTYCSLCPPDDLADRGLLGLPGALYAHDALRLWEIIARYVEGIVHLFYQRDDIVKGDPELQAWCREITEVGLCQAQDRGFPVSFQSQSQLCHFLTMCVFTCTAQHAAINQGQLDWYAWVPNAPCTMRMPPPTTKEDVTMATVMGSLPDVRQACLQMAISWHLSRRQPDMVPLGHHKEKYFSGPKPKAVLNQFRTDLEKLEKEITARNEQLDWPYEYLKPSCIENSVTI
Description: (§2) The metabolism of radioactively labelled arachidonic acid on washed human platelets is utilised in this test method. In this in vitro test, the radioactively labelled metabolites are extracted from the reaction mixture and separated by thin layer chromatography. The autoradiogram is evaluated with a thin layer scanner. Under these test conditions, the labelled metabolites are separated from the unreacted arachidonic acid and can then be evaluated quantitatively.

[8] = target: T5, cyclooxygenase (Homo sapiens, UniProt P23219); assay: Arachidonic acid metabolism in human platelets: cyclooxygenase activity; type: cell-based
T5 construct: washed human platelets; endogenous in cells; host or cells: washed human platelets
Description: as §2

[9] = system: cyclooxygenase; settings: background statement; cited from earlier work

T5 sequence (P23219 24-599): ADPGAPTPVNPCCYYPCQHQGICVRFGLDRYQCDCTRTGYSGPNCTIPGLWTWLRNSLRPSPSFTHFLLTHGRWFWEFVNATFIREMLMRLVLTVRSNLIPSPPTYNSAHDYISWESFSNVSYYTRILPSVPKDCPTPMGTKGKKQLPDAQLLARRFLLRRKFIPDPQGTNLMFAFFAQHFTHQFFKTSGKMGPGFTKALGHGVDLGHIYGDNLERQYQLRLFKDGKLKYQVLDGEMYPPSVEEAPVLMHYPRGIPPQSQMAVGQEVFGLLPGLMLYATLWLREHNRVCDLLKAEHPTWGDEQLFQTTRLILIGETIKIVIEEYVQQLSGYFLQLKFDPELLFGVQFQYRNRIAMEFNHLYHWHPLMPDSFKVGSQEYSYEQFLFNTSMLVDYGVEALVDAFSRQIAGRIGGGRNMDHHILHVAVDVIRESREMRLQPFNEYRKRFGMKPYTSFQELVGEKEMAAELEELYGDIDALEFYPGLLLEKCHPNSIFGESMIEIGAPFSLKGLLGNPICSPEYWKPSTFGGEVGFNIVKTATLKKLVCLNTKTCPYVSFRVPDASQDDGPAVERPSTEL

Row | Action on lipoxygenase (LO): Effect [3] [%] | Action on cyclooxygenase (CO): Effect [5] | SMILES | % inhibition of the carrageenan oedema [2] [%] | other results
1 |  |  | O=c1c(-c2cccc(C(F)(F)F)c2)c[nH]n1-c1ccccn1 [Example 27] |  | % inhibition, passive peritoneal anaphylaxis [1]: 47%
2 |  |  | Cc1cccc(-c2c[nH]n(-c3ccccn3)c2=O)c1 [Example 25] |  | % inhibition, passive peritoneal anaphylaxis [1]: 64%
3 |  |  | O=c1c(-c2ccc(C(F)(F)F)cc2)c[nH]n1-c1ncc(Cl)cn1 [Example 135] | 46 | 
4 | -42 |  | O=c1c(-c2ccccc2)c[nH]n1-c1ncccn1 [Example 103, 1-pyrimid-2-yl-4-phenyl-pyrazolin-5-one] |  | 
5 |  |  | NC1=NN(c2cccc(C(F)(F)F)c2)CC1 [BW 755C, 3-amino-1-(3-trifluoromethylphenyl)-pyrazoline] |  | toxic side effects (in words) [4]: toxic side effects
6 | -46 | +23% | O=c1c(-c2ccccc2F)c[nH]n1-c1ncccn1 [Example 104] |  | 
7 | -71 | -11% | COc1ccc(-c2c[nH]n(-c3ncccn3)c2=O)cc1 [Example 113] |  | 
8 |  |  | O=c1c(-c2ccccc2)c[nH]n1-c1ncc(Cl)cn1 [Example 130] | 38 | 
9 |  |  | O=c1c(-c2ccccc2)c[nH]n1-c1ccc([N+](=O)[O-])cn1 [Example 69] | 34 | 
10 |  |  | COc1ccc(-c2c[nH]n(-c3ccccn3)c2=O)cc1 [Example 18] | 22 | 
11 | -58 | +5% | O=c1c(-c2ccc(C(F)(F)F)cc2)c[nH]n1-c1ccccn1 [Example 28] | 21 | 
12 |  |  | Cc1[nH]n(-c2ccc(Cl)cn2)c(=O)c1-c1ccccc1 [Example 63] |  | inhibition at 10 µg/mL ([6]; at 10 μg/ml): 100%; Effective threshold concentration, inhibition of LTB4 synthesis [6]: 1 to 10 µg/mL; Inhibition (threshold concentration), 12-lipoxygenase [7]: 1 to 10 µg/mL; Inhibition (threshold concentration), cyclooxygenase [8]: 1 to 10 µg/mL
13 |  |  | Cc1[nH]n(-c2ccccn2)c(=O)c1-c1ccccc1 [Example 49] | 16 | 
14 | -73 | +3% | O=c1c(-c2ccccc2F)c[nH]n1-c1ccccn1 [Example 8] |  | inhibition at 10 µg/mL ([6]; at 10 μg/ml): 71%; Effective threshold concentration, inhibition of LTB4 synthesis [6]: 1 to 10 µg/mL; Inhibition (threshold concentration), 12-lipoxygenase [7]: 1 to 10 µg/mL; Inhibition (threshold concentration), cyclooxygenase [8]: 1 to 10 µg/mL
15 |  |  | CC(Cc1ccc(O)c(O)c1)C(C)Cc1ccc(O)c(O)c1 (stereo not drawn) [nordihydroguaretic acid] |  | cyclooxygenase activity / potency of known lipoxygenase inhibitors (in words) [9]: either simultaneously active as cyclooxygenase inhibitors or active only at very high concentrations
16 |  |  | CCCCCC#CCC#CCC#CCC#CCCCC(=O)O [5,8,11,14-eicosatetraynoic acid] |  | cyclooxygenase activity / potency of known lipoxygenase inhibitors (in words) [9]: either simultaneously active as cyclooxygenase inhibitors or active only at very high concentrations
17 |  |  | O=C1CCN(c2ccccc2)N1 [phenidone] |  | cyclooxygenase activity / potency of known lipoxygenase inhibitors (in words) [9]: either simultaneously active as cyclooxygenase inhibitors or active only at very high concentrations
18 | -76 | -19% | O=c1c(-c2ccc(Cl)c(Cl)c2)c[nH]n1-c1ccccn1 [Example 16] |  | inhibition at 10 µg/mL ([6]; at 10 μg/ml): 85%; Effective threshold concentration, inhibition of LTB4 synthesis [6]: 1 to 10 µg/mL; Inhibition (threshold concentration), 12-lipoxygenase [7]: 1 to 10 µg/mL; Inhibition (threshold concentration), cyclooxygenase [8]: 1 to 10 µg/mL
19 | -66 | -17% | COc1ccccc1-c1c[nH]n(-c2ccc(Cl)cn2)c1=O [Example 58] |  | 
20 | -34 | -2% | Cc1ccccc1-c1c[nH]n(-c2ccccn2)c1=O [Example 24] |  | 

Row | SMILES | Action on lipoxygenase (LO): Effect [3] [%] | Action on cyclooxygenase (CO): Effect [5] | % inhibition of the carrageenan oedema [2] [%] | other results
21 | O=c1c(-c2ccccc2)c[nH]n1-c1ccccn1 [Example 7, 1-pyrid-2-yl-4-phenyl-pyrazolin-5-one] | -66 | +28% | 44 | % inhibition, passive peritoneal anaphylaxis [1]: 65%; ED50 ([2]; Rattus norvegicus, po, 5 h, read-out: ED50 of oedema inhibition): 9.1 mg/kg; inhibition at 10 µg/mL [6]: 92%
